| SMILES | logP |
| --- | --- |
| CCc1cccc(C)c1N(COC(C)C)C(=O)CCl | 3.5 |
| O=C(NC(=O)c1c(F)cccc1F)Nc1ccc(OC(F)(F)C(F)OC(F)(F)F)c(Cl)c1 (centres undefined) | 5.27 |
| Fc1cccc(F)c1-c1nnc(-c2ccccc2Cl)nn1 | 3.3 |
| COP(=O)(OC)SCn1c(=O)oc2cc(Cl)cnc21 | 1.05 |
| Cc1cccc(C)c1N(C(=O)CCl)C1CCOC1=O (centres undefined) | 1.39 |
| CCOP(=O)(SC(C)CC)N1CCSC1=O (centres undefined) | 1.68 |
| CN(C)S(=O)(=O)N(SC(F)(Cl)Cl)c1ccccc1 | 3.7 |
| Clc1ccc(CS/C(Cn2cncn2)=N\c2ccc(Cl)cc2Cl)cc1 | 4.94 |
| O=C(NC(=O)c1c(F)cccc1F)Nc1ccc(Cl)c(Oc2ncc(C(F)(F)F)cc2Cl)c1 | 5.1 |

Reference: the SangsterLogP compilation
